# Results reported in patent US12679878B2, “CRF2 receptor agonists and their use in therapy” (SANOFI, priority 2020, dated 2026).
# Like-named read-outs stand apart in the source and are kept apart here. Starred links: 1 amine or outer side, 2 acyl side, 3 side chain; linkers in the order of their positions; H or OH if unused. Non-standard residues stand in square brackets, D forms with d. Residues, ends and D or L forms follow the SMILES beside them. Groups on a side chain read outwards from the residue. *: point of attachment. C18 diacid = O=C(O)CCCCCCCCCCCCCCCCC(=O)*; γGlu = O=C(O)[C@H](CCC(=O)[*:2])N[*:1]; AEEA = NCCOCCOCC(=O)O; Aib = CC(C)(N)C(=O)O
# Assays:
# Assay type in all cases: cell-based
# human CRF2α receptor = biological target: T1, human CRF2α receptor (Homo sapiens, UniProt Q13324); assay: cAMP agonism at human CRF2 α receptor in TeloHEAC cells (Example 7); conditions: cAMP HTRF, TeloHEAC cells stably expressing human CRF2 α
# T1 construct: expressed in transfected cells; host or cells: TeloHEAC
# T1 sequence (Q13324 1-411): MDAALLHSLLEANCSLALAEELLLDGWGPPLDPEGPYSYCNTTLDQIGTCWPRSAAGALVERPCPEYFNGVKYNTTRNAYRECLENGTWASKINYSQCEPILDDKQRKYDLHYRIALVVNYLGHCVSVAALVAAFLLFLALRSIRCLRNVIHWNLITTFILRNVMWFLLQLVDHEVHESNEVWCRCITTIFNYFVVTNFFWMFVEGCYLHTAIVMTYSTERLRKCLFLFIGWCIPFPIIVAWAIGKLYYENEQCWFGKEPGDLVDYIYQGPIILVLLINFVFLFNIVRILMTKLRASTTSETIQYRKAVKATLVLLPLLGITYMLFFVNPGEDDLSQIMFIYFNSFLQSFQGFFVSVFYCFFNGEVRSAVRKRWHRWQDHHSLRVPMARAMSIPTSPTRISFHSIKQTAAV
# How it was run: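 Steps: thaw and wash cells; suspend in 1×HBSS, 20 mM HEPES, 0 or 0.1% HSA, 2 mM IBMX; add compound, 30 min RT; lyse with HTRF reagents, 1 h; read 665/620 nm. EC50 calculated, E% versus 1000 nM UCN2.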
# rat CRF2R α receptor = assay: cAMP agonism at rat CRF2R α receptor in A7R5 rat aortic smooth muscle cells (Example 8); conditions: cAMP HTRF, A7R5 rat aortic smooth muscle cell line, 0% HSA
# How it was run: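 Potency (EC50) is the concentration reaching half-maximal activation, with responses scaled so that 1000 nM urocortin 2 equals 100%. Intracellular cAMP was quantified by homogeneous time-resolved fluorescence at 665/620 nm, 1 h after lysis-buffer reagents. Compound stimulation lasted 30 min at room temperature on 2000 IBMX-treated (2 mM) cells per well in HEPES-buffered HBSS.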
# CRF1R receptor = biological target: T2, CRF1R receptor (Homo sapiens, UniProt P34998); assay: cAMP activity at anti-target CRF1R, CRF1R-overexpression CHO cell line (Example 9); conditions: CRF1R-overexpression CHO cell line; for EC50: 0% HSA; for Emax: read-out: Emax (%)
# T2 construct: host or cells: CHO-K1 clone 2
# T2 sequence (P34998 24-415): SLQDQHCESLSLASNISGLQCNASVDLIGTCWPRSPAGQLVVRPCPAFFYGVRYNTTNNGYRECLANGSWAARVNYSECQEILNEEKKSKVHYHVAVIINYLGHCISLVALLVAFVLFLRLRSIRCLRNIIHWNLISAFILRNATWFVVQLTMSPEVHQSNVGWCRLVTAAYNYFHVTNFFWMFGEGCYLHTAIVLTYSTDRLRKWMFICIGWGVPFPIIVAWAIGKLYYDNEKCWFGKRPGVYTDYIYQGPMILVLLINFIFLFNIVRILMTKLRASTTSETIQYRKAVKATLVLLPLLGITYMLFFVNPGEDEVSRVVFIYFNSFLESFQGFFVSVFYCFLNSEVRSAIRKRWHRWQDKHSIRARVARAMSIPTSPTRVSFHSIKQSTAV
# How it was run: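 Using thawed CRF1R-overexpressing CHO cells at 2000 per well, compound is applied for 30 min at RT in HBSS/HEPES buffer with IBMX. Cellular cAMP content is determined via HTRF, and percent activity is calculated against 1000 nM UCN2 defined as 100%.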
# [1] = 0% HSA, read-out: EC50 [nM], 0% HSA
# [2] = 0.1% HSA, read-out: EC50 [nM], 0.1% HSA
EC50 (human CRF2α receptor; [1]) [nM],EC50 (human CRF2α receptor; [2]) [nM],EC50 (rat CRF2R α receptor) [nM],EC50 (CRF1R receptor) [nM],Emax (CRF1R receptor) [%],Structure (SMILES)
0.11,5.7,0.69,> 1000,15.9,CC[C@H](C)[C@H](N)C(=O)N[C@H](C(=O)N[C@@H](CC(C)C)C(=O)N[C@@H](CO)C(=O)N[C@@H](CC(C)C)C(=O)N[C@@H](CC(=O)O)C(=O)N[C@H](C(=O)N1CCC[C@H]1C(=O)N[C@H](C(=O)N[C@@H](CCCCN)C(=O)N[C@@H](CC(C)C)C(=O)N[C@@H](CCCCNC(=O)COCCOCCNC(=O)COCCOCCNC(=O)CC[C@H](NC(=O)CCCCCCCCCCCCCCCCC(=O)O)C(=O)O)C(=O)N[C@@H](CCC(N)=O)C(=O)N[C@H](C(=O)N[C@@H](CC(C)C)C(=O)N[C@@H](CC(C)C)C(=O)N[C@@H](CCCCN)C(=O)N[C@@H](CCC(N)=O)C(=O)N[C@@H](CCC(=O)O)C(=O)N[C@@H](CCCNC(=N)N)C(=O)N[C@@H](CCC(N)=O)C(=O)N[C@@H](CCCCN)C(=O)N[C@@H](CCCCN)C(=O)N[C@@H](CCC(N)=O)C(=O)N[C@@H](CCCNC(=N)N)C(=O)N[C@@H](CCC(=O)O)C(=O)N[C@@H](CCC(N)=O)C(=O)N[C@@H](C)C(=O)N[C@@H](CCCCN)C(=O)N[C@H](C(=O)N[C@@H](CC(N)=O)C(=O)N[C@@H](CCCCN)C(=O)N[C@@H](CCC(N)=O)C(=O)N[C@H](C(=O)N[C@@H](CC(C)C)C(=O)N[C@@H](C)C(=O)N[C@@H](CCC(N)=O)C(=O)N[C@H](C(N)=O)C(C)C)[C@@H](C)CC)[C@@H](C)O)[C@@H](C)CC)[C@@H](C)CC)C(C)C)C(C)C [compound 86] (H-IVLSLDVPIKLK([AEEA-AEEA-γGlu-C18 diacid])QILLKQERQKKQREQAKTNKQILAQV-NH2; N-terminus assumed)
0.23,16.2,1.49,> 1000,-0.2,CC[C@H](C)[C@H](N)C(=O)N[C@H](C(=O)N[C@@H](CC(C)C)C(=O)N[C@@H](CO)C(=O)N[C@@H](CC(C)C)C(=O)N[C@@H](CC(=O)O)C(=O)N[C@H](C(=O)N1CCC[C@H]1C(=O)N[C@H](C(=O)N[C@@H](CCCCN)C(=O)N[C@@H](CC(C)C)C(=O)N[C@@H](CCCCNC(=O)COCCOCCNC(=O)COCCOCCNC(=O)CC[C@H](NC(=O)CCCCCCCCCCCCCCCCC(=O)O)C(=O)O)C(=O)N[C@@H](CCC(N)=O)C(=O)N[C@H](C(=O)N[C@@H](CC(C)C)C(=O)N[C@@H](CC(C)C)C(=O)N[C@@H](CCCCN)C(=O)N[C@@H](CCC(N)=O)C(=O)N[C@@H](CCC(=O)O)C(=O)N[C@@H](CCCNC(=N)N)C(=O)N[C@@H](CCC(N)=O)C(=O)N[C@@H](CCCCN)C(=O)N[C@@H](CCCCN)C(=O)N[C@@H](CCC(N)=O)C(=O)N[C@@H](CCCNC(=N)N)C(=O)N[C@@H](CCC(=O)O)C(=O)N[C@@H](CCCCN)C(=O)N[C@@H](C)C(=O)N[C@@H](CCCCN)C(=O)N[C@H](C(=O)N[C@@H](CC(N)=O)C(=O)N[C@@H](CCCCN)C(=O)N[C@@H](CCC(N)=O)C(=O)N[C@H](C(=O)N[C@@H](CC(C)C)C(=O)N[C@@H](C)C(=O)N[C@@H](CCC(N)=O)C(=O)N[C@H](C(N)=O)C(C)C)[C@@H](C)CC)[C@@H](C)O)[C@@H](C)CC)[C@@H](C)CC)C(C)C)C(C)C [compound 87] (H-IVLSLDVPIKLK([AEEA-AEEA-γGlu-C18 diacid])QILLKQERQKKQREKAKTNKQILAQV-NH2; N-terminus assumed)
0.51,20.5,7.52,> 1000,5.06,CC[C@H](C)[C@H](N)C(=O)N[C@H](C(=O)N[C@@H](CC(C)C)C(=O)N[C@@H](CO)C(=O)N[C@@H](CC(C)C)C(=O)N[C@@H](CC(=O)O)C(=O)N[C@H](C(=O)N1CCC[C@H]1C(=O)N[C@H](C(=O)N[C@@H](CCCCN)C(=O)N[C@@H](CC(C)C)C(=O)N[C@@H](CCCCNC(=O)COCCOCCNC(=O)COCCOCCNC(=O)CC[C@H](NC(=O)CCCCCCCCCCCCCCCCC(=O)O)C(=O)O)C(=O)N[C@@H](CCCCN)C(=O)N[C@H](C(=O)N[C@@H](CC(C)C)C(=O)N[C@@H](CC(C)C)C(=O)N[C@@H](CCCCN)C(=O)N[C@@H](CCC(N)=O)C(=O)N[C@@H](CCC(=O)O)C(=O)N[C@@H](CCCNC(=N)N)C(=O)N[C@@H](CCC(N)=O)C(=O)N[C@@H](CCCCN)C(=O)N[C@@H](CCCCN)C(=O)NC(C)(C)C(=O)N[C@@H](CCCNC(=N)N)C(=O)N[C@@H](CCC(=O)O)C(=O)N[C@@H](CCC(N)=O)C(=O)N[C@@H](C)C(=O)N[C@@H](CCC(=O)O)C(=O)N[C@H](C(=O)N[C@@H](CC(N)=O)C(=O)NC(C)(C)C(=O)N[C@@H](CCC(N)=O)C(=O)N[C@H](C(=O)N[C@@H](CC(C)C)C(=O)N[C@@H](C)C(=O)N[C@@H](CCC(N)=O)C(=O)N[C@H](C(N)=O)C(C)C)[C@@H](C)CC)[C@@H](C)O)[C@@H](C)CC)[C@@H](C)CC)C(C)C)C(C)C [compound 100] (H-IVLSLDVPIKLK([AEEA-AEEA-γGlu-C18 diacid])KILLKQERQKK[Aib]REQAETN[Aib]QILAQV-NH2; N-terminus assumed)
0.11,4.28,1.02,> 1000,-0.34,CC[C@H](C)[C@H](N)C(=O)N[C@H](C(=O)N[C@@H](CC(C)C)C(=O)N[C@@H](CO)C(=O)N[C@@H](CC(C)C)C(=O)N[C@@H](CC(=O)O)C(=O)N[C@H](C(=O)N1CCC[C@H]1C(=O)N[C@H](C(=O)N[C@@H](CCCCN)C(=O)N[C@@H](CC(C)C)C(=O)N[C@@H](CCCCNC(=O)COCCOCCNC(=O)COCCOCCNC(=O)CC[C@H](NC(=O)CCCCCCCCCCCCCCCCC(=O)O)C(=O)O)C(=O)N[C@@H](CCCCN)C(=O)N[C@H](C(=O)N[C@@H](CC(C)C)C(=O)N[C@@H](CC(C)C)C(=O)N[C@@H](CCCCN)C(=O)N[C@@H](CCC(N)=O)C(=O)N[C@@H](CCC(=O)O)C(=O)N[C@@H](CCCNC(=N)N)C(=O)N[C@@H](CCC(N)=O)C(=O)N[C@@H](CCCCN)C(=O)N[C@@H](CCCCN)C(=O)NC(C)(C)C(=O)N[C@@H](CCCNC(=N)N)C(=O)N[C@@H](CCC(=O)O)C(=O)N[C@@H](CCC(N)=O)C(=O)N[C@@H](C)C(=O)N[C@@H](CCC(=O)O)C(=O)N[C@H](C(=O)N[C@@H](CC(N)=O)C(=O)N[C@@H](CCCCN)C(=O)N[C@@H](CCC(N)=O)C(=O)N[C@H](C(=O)N[C@@H](CC(C)C)C(=O)N[C@@H](CCC(=O)O)C(=O)N[C@@H](CCCNC(=N)N)C(=O)N[C@H](C(N)=O)C(C)C)[C@@H](C)CC)[C@@H](C)O)[C@@H](C)CC)[C@@H](C)CC)C(C)C)C(C)C [compound 101] (H-IVLSLDVPIKLK([AEEA-AEEA-γGlu-C18 diacid])KILLKQERQKK[Aib]REQAETNKQILERV-NH2; N-terminus assumed)
